Test results from patent publication US20040143014A1, “Therapeutic use of alpha-2-delta ligands” (Pfizer Inc, priority 2002, published 2004).
Entries after “also recorded” stand apart in the source; their conditions may differ.

Experiments:
human small bronchi [1] = test: Human bronchi contraction induced by acetylcholine, organ bath; settings: 0.1 mM and 1 mM, 15 min before the stimulus; ACh 100 nM-10 mM
Protocol: The human samples were taken from 10 different patients who were undergoing lung resection for a solitary peripheral carcinoma. […] The bronchial rings (from 3 to 11 from each sample) were taken from the lobar or segmental bronchus of the lobe obtained at surgery, away from the tumor site.
Tissues were fixed to the base of the organ bath and connected to an isometric force transducer. […] During the initial stabilization period (90 min) tissues were washed six times. A challenge with acetyl choline (Ach) (1 mM) was performed and after washing, the tissue was allowed to equilibrate for an additional 90 min. To prevent peptide degradation phosphoramidon (1 μM) was added to the bath. Viability of the tissues was tested with the response to ACh (1 mM).
Experiments in human bronchi were performed in the presence of L-NAME (100 μM) to block the production of nitric oxide, indomethacin (5 μM) to block the production of prostanoids and propranolol (1 μM) to block β-adrenoceptors.
(§1) Values were presented as mean±standard error of the mean (SEM). Comparisons between groups were made by one way analysis of variance (ANOVA) and the Dunnett's test for multiple comparisons. A p value of <0.05 was considered significant.

human small bronchi [2] = test: Human bronchi contraction produced by electric field stimulation (EFS), organ bath; settings: 0.1 mM and 1 mM; EFS 30 Hz, 0.5 ms, 10 sec, 70V; with L-NAME, indomethacin, propranolol
Excerpt: In a separate set of experiments, human bronchi were electrically stimulated (30 Hz, 0.5 ms pulse width, duration 10 sec, 70V).

[3] = system: citric acid-induced cough; test: Citric acid-induced cough in guinea pigs; settings: for inhibition of the cough response to citric acid inhalation: aerosolized 1 mM inhaled for 10 min prior to citric acid 0.25 M; for motor activity (behavioral effect, not quantified): guinea pigs, 1 mM aerosolized for 10 min
Protocol: After the period of acclimatisation to laboratory conditions, animals were individually placed in a transparent perspex box (20×10×10 cm, Vetrotecnica, Italy) ventilated with a constant airflow of 400 ml/min. The tussive agents (citric acid 0.25 M) was nebulised via a mini-ultrasonic nebuliser (Ugo Basile, Italy). […] The appearance of cough was detected by means of a tie-clip microphone (Sony, Japan) and confirmed by the characteristic posture of the animal. The cough sounds were recorded and digitally stored. The number of elicited cough efforts was subsequently counted by a blind observer.
All experiments were carried out at the same time of day. To elicit cough, guinea pigs were exposed to aerosols of citric acid for 10 min.
as §1

[4] = system: citric acid induced cough; settings: guinea pigs; Lalloo et al., Trevisani et al.; cited from earlier work
rat spinal tissues = settings: only after inflammation or activation of protein kinase C; Pain 2003, 105, 133-141; cited from earlier work

SMILES	inhibition of the contraction caused by acetylcholine (human small bronchi [1])	effect on the contractile response produced by EFS (human small bronchi [2])	inhibition of the cough response to citric acid inhalation [3]	motor activity (behavioral effect, not quantified) [3]	effect on citric acid induced cough [4]	release of substance P and CGRP (rat spinal tissues)
NC[C@]1(CC(=O)O)C[C@H]2CC[C@H]2C1 [Compound A, (1α, 3α,5α)(3-amino-methyl-bicyclo[3.2.0]hept-3-yl)-acetic acid]	did not produce any significant inhibition; also recorded: Absence of effect	significant (p<0.05) inhibitory effect	significant inhibition	some degree of reduction in motor activity		
Oc1cc2c(cc1O)CN(C(=S)NCCc1ccc(Cl)cc1)CCC2 [capsazepine]					inhibited this response	
NCC1(CC(=O)O)CCCCC1 [gabapentin, 1-(aminomethyl)-cyclohexylacetic acid]	did not produce any significant inhibition; also recorded: Absence of effect	significant (p<0.05) inhibitory effect	significant inhibition	some degree of reduction in motor activity		reduce release of substance P and CGRP
C=C(C)[C@]12C[C@@H](C)[C@@]34O[C@](Cc5ccccc5)(O[C@@H]1[C@@H]3C=C(COC(=O)Cc1cc(I)c(O)c(OC)c1)C[C@]1(O)C(=O)C(C)=C[C@@H]41)O2 [iodo-resiniferatoxin]					inhibited this response	
CC(C)C[C@H](CN)CC(=O)O [pregabalin, (S)-(+)-4-amino-3-(2-methylpropyl)butanoic acid]						reduce release of substance P and CGRP
